Source: a melting point compilation (Tetko et al.; mined from patent text by program, amines drawn as free bases though some values may be those of a salt)

| Structure (SMILES) | melting point |
| --- | --- |
| CCOc1ccc(-c2c(C(=O)OC)c(C(=O)OC)c(O)c3cc(OC)c(OC)c(OC)c23)cc1OCC | 138 to 140 °C |
| O[C@@H]1CN=C(c2ccccc2F)O[C@H]1c1ccccc1 (racemic) | 142 °C |
| CC1(C)OC(=S)Nc2ccc(-c3cccc([N+](=O)[O-])c3)cc21 | 224 to 226 °C |
| CCCCCCS(=O)(=O)c1nnnn1CC(=O)OCC | 40 to 42 °C |
| N#Cc1ccc2c(c1)C(=O)OC2 | 195 to 196 °C |
| Cc1cc2c3c(ccn2n1)CCC3CCNC(=O)C1CC1 (stereo unspecified) | 112 to 113 °C |
| CCCn1nc(C(=O)OCC)cc1CC(C)(C)NC(=O)OC(C)(C)C | 109 to 111 °C |
| Nc1cnnc(Cl)c1Cl | 150 to 151 °C |
| CCCC(=O)Nc1ccc(N2CCC(NC[C@H](O)COc3cccc4[nH]c5ccccc5c34)CC2)cc1 | 194 to 199 °C |
| CCCOC(=O)c1cn(C(C)(C)C)c2ncc([N+](=O)[O-])cc12 | 116 to 120 °C |
| CCC1=C(C)C(=O)NC1=CBr | 250 to 251 °C |
| O=C(Nc1ccc(Oc2ccc(C(F)(F)F)cc2)cc1)Nc1nonc1-c1ccc(Cl)cc1 | 208 °C |
| NC(=O)c1cnccc1C(F)(F)F | 163 °C |
| COC1=C(OC)C(=O)C(CCCCCCCCCOC(C)=O)=C(C)C1=O | 30 °C |
| CN(C)C(=O)c1nc(-c2ccccc2)nc2c1c1ccccc1n2C | 193 to 195 °C |
| CNC(=O)c1cc(N[C@@H]2c3ccccc3C[C@H]2O)c2nc(C)c(C)n2c1 (relative stereo) | 143 to 144 °C |
| CC(C)C[C@H](NC(=O)OCC1CCCCC1)C(=O)N[C@@H](C(C)C)[C@@H](O)c1c(-c2ccc(F)cc2)c1=O | 86 to 90 °C |
| O=C(CCCCC1(C(=O)O)CCC1)CCCCC1(C(=O)O)CCC1 | 69 to 70 °C |
| COC(CCCNC(=O)c1ccc2c(c1)C(=O)N(CCCC(OC)OC)C2=O)OC | 102 °C |
| CC(C(=O)O)c1ccc2c(c1)C(=O)CC(C(C)C)O2 (stereo unspecified) | 94 to 95 °C |
| CC(=O)OC1=C(C=O)C=C2OCCC2C1 (stereo unspecified) | 68 to 70 °C |
| O=C(NCC(F)(F)F)C1(CCCCSc2nccs2)c2ccccc2-c2ccccc21 | 143 to 144 °C |
| O=C(NCCCCCNC(=O)c1ccc(OC(F)(F)F)cc1)c1ccc(OC(F)(F)F)cc1 | 154 to 155 °C |
| COCCOc1ccccc1-c1cc2[nH]c3ccc(OCc4ccccc4)cc3c2c2c1C(=O)NC2=O | 157 to 159 °C |
| COc1cc(Nc2nc3cccc(-c4ccc(CN)cc4)c3o2)cc(OC)c1OC | 208 to 211 °C |
| CC(C)(C)n1cc(C(=O)O)c(=O)c2cc(F)c(N3CCNCC3)nc21 | > 270 °C |

| Structure (SMILES) | melting point |
| --- | --- |
| CN(CC(F)(F)F)C(=O)COc1nc2ccccc2o1 | 92 °C |
| COCc1nnc2n1-c1sc(Cl)cc1C(c1ccccc1[N+](=O)[O-])=NC2 | 204 to 205 °C |
| FC(F)(F)c1ccc(Cn2cnc3c(-c4ccco4)ncnc32)cc1 | 159 to 161 °C |
| N#CCCNC(=S)C1CC(CF)(CF)Oc2ccc([N+](=O)[O-])cc21 (stereo unspecified) | 183 to 184 °C |
| O=c1ccc(C(F)(F)F)cn1Cc1ccccc1NCCCl | 93.5 to 95 °C |
| Nc1nc2c(nc(C#Cc3ccc(C(F)(F)F)cc3)n2C2OC(CO)C(O)C2O)c(=O)[nH]1 (stereo unspecified) | > 240 °C |
| O=C(Nc1ccc(C(F)(F)F)cc1)Nc1ccc2[nH]c(C(F)(F)F)nc2c1 | 223 to 228 °C |
| CCOC(=O)CSc1nc(C(C)(C)C)n[nH]1 | 93 °C |
| c1cc(-c2n[nH]c3c2Cc2ccc(CN4CCNCC4)cc2-3)cs1 | 125 to 130 °C |
| Nc1nc(OCCC2CCCCC2)c2[nH]cnc2n1 | 210 °C |
| CN(c1cccc2cc(C3=NCC(CN4CCOCC4)S3)[nH]c12)S(=O)(=O)c1cccs1 (stereo unspecified) | 139 to 140 °C |
| CC1(C=C(F)F)CN(C(=O)Nc2ccc(OC(F)(F)F)cc2)N=C1c1ccc(Cl)cc1 (stereo unspecified) | 142 to 148 °C |
| COc1nc(C)c(N2CCCn3c2nc2c(Cl)ccc(C(O)(C4CC4)C4CC4)c23)c(C)n1 | 220 to 221 °C |
| COC(=O)c1csc(-c2cc3ccccc3n2C)n1 | 124 to 127 °C |
| CNC(=O)Oc1ccc(NC=O)c2c1CCCC2 | 165 to 166 °C |
| CC(C)(C)c1csc(-c2cc3cc(OCc4cccc(C#N)c4)ccc3o2)n1 | 104 to 106 °C |
| N#Cc1ccc(-c2ccc(-c3ccc(C#N)nc3)o2)cc1 | 276 to 277 °C |
| CC(C)NC(=O)C1c2cc(NC(=O)c3cc(C(F)(F)F)nn3-c3ncccc3Cl)c(Cl)cc2CC1O (stereo unspecified) | 204 to 205 °C |
| COc1ccc(-n2ccc3ccccc32)cc1F | 65 to 67 °C |
| N#Cc1ccc(-c2ccc(-c3ccc(C#N)cn3)o2)nc1 | 311 to 312 °C |
| CC12CC(=O)C3C(CCC4CC(=O)CCC43C)C1CCC2C(=O)CCl (stereo unspecified) | 168 to 172 °C |
| C#Cc1cccc(OCc2ccc(OC)cc2)c1 | 92 to 95 °C |
| O=[N+]([O-])c1cccc(/C=C/c2ccc3ccccc3n2)c1 | 145 to 147 °C |
| O=C(c1cnccn1)N1CCN(Cc2ccc3c(c2)-c2[nH]nc(-c4ccsc4)c2C3)CC1 | 254 to 259 °C |
| N#Cc1cnn(-c2ccc(F)cc2F)c1Cl | 120 to 122 °C |
| CC12CCC3C(CC=C4NC(=O)CCC43C)C1CC=C2I (stereo unspecified) | 227 to 230 °C |

| Structure (SMILES) | melting point |
| --- | --- |
| NC(=O)Cc1ccc(OCC(O)CN2CCCC(Cn3c(=O)[nH]c4cc(Cl)c(Cl)cc43)C2)cc1 (stereo unspecified) | 148 °C |
| COc1cccc(CN2C(=NCCCn3ccnc3)c3cccc4cccc2c34)c1 | 95 to 96 °C |
| Cc1nnc(-c2cccc(-c3cnc4[nH]cc(C(=O)C5(C)CCCCC5)c4n3)c2)o1 | 234 to 236 °C |
| CN(C)CCn1c(=O)[nH]c2cccnc21 | 141 to 142 °C |
| CCN(CC)CCNc1ccc(NCCNCCO)c2c1C(=O)c1c(O)ccc(O)c1C2=O | 165 to 167 °C |
| O=C1NC(=O)c2c1c(-c1ccccc1Cl)cc1c2c2cc(O)ccc2n1CCCc1nnn[nH]1 | 269 to 272 °C |
| CC(C)C[C@H](NC(=O)c1cccs1)C(=O)N[C@@H](C(C)C)[C@@H](O)c1c(-c2ccccc2)c1=O | 171 to 172 °C |
| CCCCNC(=O)Oc1cccc(NC(=O)NC2CC2)c1 | 154 °C |
| O=c1c(Cc2ccccc2)c(-c2ccccc2)oc2cc(OCC3CO3)ccc12 (stereo unspecified) | 133 to 138 °C |
| Oc1ncnc2c(F)ccc(F)c12 | 257 to 258 °C |
| CCCCCCCCCCCCCCCCN(CC(O)CO)C(=O)CCCCC (stereo unspecified) | 38.8 °C |
| Cc1noc([C@@H](Cc2ccccc2)NC(=O)[C@@H](Cc2ccc3ccccc3c2)NC(=O)OC(C)(C)C)n1 | 148 to 150 °C |
| CN1CC[C@@H](c2c(O)cc(O)c3c(=O)cc(-c4ccc([N+](=O)[O-])cc4Br)oc23)[C@@H]1CO | 186 °C |
| COc1cc2sc(C(=N)NO)cc2cc1OC(F)F | 176 to 177 °C |
| CC[C@H](NS(=O)(=O)c1ccc(OC)cc1)C(=O)OC(C)(C)C | 82 °C |
| CCOc1ccc(C2=NN(C3CCN(C(=O)CCl)CC3)C(=O)[C@@H]3CC=CC[C@H]23)cc1OCC | 135 to 136 °C |
| CNC(=O)N(O)CCOc1ccc2c(c1)CCN(CCCc1ccccc1)C2=O | 138 to 139 °C |
| CN1C(=O)N2[C@H](c3cccc(O)c3)c3[nH]c4ccc(Cl)cc4c3C[C@@]2(C)C1=O (racemic) | 248 to 250 °C |
| CC1(C)CC(=O)C2=C(C1)NC1=C(C(=O)CC(C)(C)C1)C2c1cccc(Oc2ccncc2)c1 | 186 to 188 °C |
| Cc1ccc(-c2ccc3c(c2)C=C(C(=O)N[C@H]2CC[C@H](CN(C)C4CCOCC4)CC2)CCO3)cc1 | 144 to 146 °C |
| CCCCCCC(C(=O)OCC)n1cnc2c([N+](=O)[O-])cccc21 (stereo unspecified) | 86 to 89 °C |
| CC(C)(C)C(=O)OCOc1ccc(C=O)cc1OC(=O)C(C)(C)C | 58 to 60 °C |
| CCOc1nsnc1S(C)(=O)=O | 94 to 95 °C |
| Cc1sc(N)c(C(=O)c2ccc(Cl)cc2)c1C | 122 to 123 °C |
| COc1ccc(C(=C2CCCCC2)c2ccc(OC)c(OC)c2)cc1OC | 107 °C |
| Cc1noc(C)c1-c1cnc2c(c1)N(Cc1c(F)ccc(F)c1Cl)CCN2 | 215 to 216 °C |

| Structure (SMILES) | melting point |
| --- | --- |
| COC(=O)c1ccc(SC)c(C(F)(F)F)c1 | 76 to 77 °C |
| CC(=O)NCC=C1CCc2ccc3nc(C)sc3c21 | 184 to 186 °C |
| O=C(O)c1cc(Cl)cc(Cl)c1[N+](=O)[O-] | 190 to 192 °C |
| CCC(C)C(OCc1ccccc1)C1C(C(=O)NCC(=O)O)NC(C2CCCCC2)C1[N+](=O)[O-] (stereo unspecified) | 177 to 179 °C |
| CCCCCCCCCCCCCCCCCCC1CC(=O)N(c2ccc([N+](=O)[O-])cc2O)C1=O (stereo unspecified) | 115 to 120 °C |
| CCC(C)(C)NC(=O)C(=O)C(C)(C)C | 36 °C |
| Cc1c(COc2cccc3c2CN(C2CCC(=O)NC2=O)C3=O)oc2ccccc12 (stereo unspecified) | 210 to 212 °C |
| O=C(NOC1CCCCO1)c1ccccc1 (stereo unspecified) | 130 to 134 °C |
| COc1ccc(-c2nc(C(C)C)sc2-c2ccc(OC)cc2)cc1 | 61 to 65 °C |
| CC(=O)SCCNc1nc(-c2ccccc2)c2cc(Cl)ccc2n1 | 129 °C |
| N#Cc1cc(C(=O)NNC(=O)c2occc2-c2ccccc2OCc2ccccc2)ccc1O | 118 to 120 °C |
| C=C(C(=O)c1cc(-c2cccs2)ccc1OC)c1ccc(C#N)cc1 | 86 to 88 °C |
| O=C1CC2OC(CS(=O)c3ccccc3)CN12 (racemic) | 119 to 120 °C |
| CC(C)(C)OC(=O)NC(C(=O)NC1c2cc(C#N)ccc2OC(C)(C)C1O)c1ccccc1 (stereo unspecified) | 112 to 130 °C |
| CC(Oc1cc(-c2nn(C)c(C(F)(F)F)c2Cl)c(F)cc1Cl)C(=O)O (stereo unspecified) | 150 to 151 °C |
| Nc1c2c(cc3c1CCC3)CCC2 | 94.5 to 96.6 °C |
| CC(C)(C)c1cc(Br)c(O)c(C=NO)c1 | 167 to 169 °C |
| FC(F)(F)C(F)(F)C(F)(F)c1nc(-c2ccc(OCCCn3ccnc3)cc2)no1 | 60 to 60.5 °C |
| CSc1cn(C)c2c(-c3ccccc3)csc2c1=O | 204 to 206 °C |
| Cc1c(CO)c(CO)c2n1-c1ccccc1C2 | 123 to 125 °C |
| COc1cc(-c2nc(C)no2)cc([N+](=O)[O-])c1OC | 111 °C |
| Oc1ccc2oc3ccccc3c2c1Cn1c(=S)sc2ccccc21 | 174 to 180 °C |
| COC(C)=CC(=O)Nc1ccccc1C | 101 °C |
